According to paper PMC4460250, “Systems Pharmacology Dissecting Holistic Medicine for Treatment of Complex Diseases: An Example Using Cardiocerebrovascular Diseases Treated by TCM” (Evidence-based Complementary and Alternative Medicine : eCAM, 2015):
Read-outs that look alike come from different tables or passages of the source.

Assays:
[1] = molecular target: PIM1 (Homo sapiens, UniProt P11309); test: PIM1 inhibition assay (ligand-binding assay, manufacturer's instructions); assay type: biochemical; conditions: Bliss method, three independent determinations, read-out: IC50 (μM): mean ± SD
Sequence of PIM1 (P11309 whole entry): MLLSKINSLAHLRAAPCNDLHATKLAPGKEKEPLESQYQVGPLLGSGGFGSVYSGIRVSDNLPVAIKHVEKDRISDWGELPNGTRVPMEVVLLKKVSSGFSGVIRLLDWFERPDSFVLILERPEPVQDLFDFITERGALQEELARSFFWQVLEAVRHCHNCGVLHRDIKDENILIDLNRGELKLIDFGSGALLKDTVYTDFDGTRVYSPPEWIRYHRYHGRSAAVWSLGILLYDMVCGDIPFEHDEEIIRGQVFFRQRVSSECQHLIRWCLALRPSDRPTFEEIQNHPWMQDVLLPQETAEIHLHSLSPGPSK

[2] = molecular target: T1, PTGS1 (Ovis aries, UniProt P05979); test: PTGS1 inhibition assay (ligand-binding assay, manufacturer's instructions); assay type: biochemical; conditions: Bliss method, three independent determinations, read-out: IC50 (μM): mean ± SD
T1 sequence (P05979 25-600): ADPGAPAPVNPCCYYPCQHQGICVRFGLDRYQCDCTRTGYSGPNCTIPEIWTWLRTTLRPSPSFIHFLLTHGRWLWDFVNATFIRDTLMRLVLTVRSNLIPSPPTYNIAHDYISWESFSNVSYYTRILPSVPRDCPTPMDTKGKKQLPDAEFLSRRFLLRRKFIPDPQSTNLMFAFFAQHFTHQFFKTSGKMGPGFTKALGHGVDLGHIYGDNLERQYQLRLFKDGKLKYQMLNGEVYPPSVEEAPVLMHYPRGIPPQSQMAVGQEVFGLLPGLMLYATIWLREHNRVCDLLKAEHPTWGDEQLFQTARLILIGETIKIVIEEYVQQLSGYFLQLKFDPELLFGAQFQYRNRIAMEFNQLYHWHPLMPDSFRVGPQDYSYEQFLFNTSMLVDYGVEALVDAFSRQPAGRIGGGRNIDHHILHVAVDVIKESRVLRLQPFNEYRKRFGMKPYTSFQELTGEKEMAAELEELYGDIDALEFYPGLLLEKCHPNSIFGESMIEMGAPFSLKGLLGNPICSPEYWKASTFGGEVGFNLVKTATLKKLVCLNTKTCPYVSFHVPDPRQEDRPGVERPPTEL
Experimental: To validate the practicability and efficiency of above methods, the inhibitory effects of drugs on predicted targets were quantified by ligand-binding assays according to the manufacturer's instructions. The drug-target interactions were selected at random and readily available on the market, respectively. […] Targets PIM1 and PTGS1 were respectively purchased from Cayman Chemical, Ann Arbor, MI, USA and CycLex, Japan. The purity of all the compounds is >98%. All drugs were dissolved in DMS and freshly prepared due to loss of activity under long-term storage. IC50 values were determined using the Bliss method with three independent determinations.

[3] = cited from earlier work
[4] = Human intestinal absorption percentage values of the PreHIA data set (732 compounds, Table S2); conditions: class from HIA value
[5] = human, PreHIA data set, value given as fraction

Row | Compound | IC50 [1] [µM] | IC50 [2] [µM] | HIA(Human Intestinal Absorption) [3, 5] | Class(High: HIA value ≥0.7; Low: HIA value < 0.7) [4] | HIA(Human Intestinal Absorption) ([3]; in vivo)
1 | O=c1c(O[C@@H]2O[C@H](CO)[C@@H](O)[C@H](O)[C@H]2O)c(-c2ccc(O)cc2)oc2cc(O)cc(O)c12 [Astragalin] | 62 ± 9.7 |  |  |  | 
2 | O=c1c(O[C@@H]2O[C@H](CO)[C@@H](O)[C@H](O)[C@H]2O)c(-c2ccc(O)cc2)oc2cc(O)cc(O)c12 [Kaempferol-3-glucoside] |  | 74 |  |  | 
3 | CCCN(CCC)CCc1cccc2c1CC(=O)N2 [Ropinirole] |  |  | 0.98 | High (High: HIA value ≥0.7) | 
4 | C[C@@H]1O[C@@H](OC[C@H]2O[C@@H](Oc3c(-c4ccc(O)c(O)c4)oc4cc(O)cc(O)c4c3=O)[C@H](O)[C@@H](O)[C@@H]2O)[C@H](O)[C@H](O)[C@H]1O [Rutin] | 57 ± 5.8 |  |  |  | 
5 | Cn1nnc2c(C(N)=O)ncn2c1=O [Temozolomide] |  |  | 1 | High (High: HIA value ≥0.7) | 
6 | NC(=O)N1C(=O)/C(=C(\O)c2cccs2)c2cc(Cl)ccc21 [Tenidap] |  |  |  | High (High: HIA value ≥0.7) | 0.89
7 | CCO[C@@H](Cc1ccc(OCCc2ccc(OS(C)(=O)=O)cc2)cc1)C(=O)O [Tesaglitazar] |  |  | 1 | High (High: HIA value ≥0.7) | 
8 | CSc1ccc2ncn(/C=C/C(=O)O)c(=O)c2c1 [Tiacrilast] |  |  | 0.99 | High (High: HIA value ≥0.7) | 
9 | COc1cc(C)c([S+](C)[O-])cc1OC (stereo not shown) [Tolmesoxide] |  |  | 0.98 | High (High: HIA value ≥0.7) | 
10 | COc1ccc2c(C(=S)N(C)CC(=O)O)cccc2c1C(F)(F)F [Tolrestat] |  |  | 0.66 | Low (Low: HIA value < 0.7) | 
11 | O=c1n(CCCN2CCN(c3cccc(Cl)c3)CC2)nc2ccccn12 [Trazodone] |  |  | 1 | High (High: HIA value ≥0.7) | 
12 | CC1(C)O[C@@H]2C[C@H]3[C@@H]4CCC5=CC(=O)C=C[C@]5(C)[C@@]4(F)[C@@H](O)C[C@]3(C)[C@]2(C(=O)CO)O1 [Triamcinolone_acetonide] |  |  | 0.9 | High (High: HIA value ≥0.7) | 
13 | CN1[C@@H]2CC[C@H]1C[C@@H](OC(=O)c1c[nH]c3ccccc13)C2 [Tropisetron] |  |  | 0.95 | High (High: HIA value ≥0.7) | 
14 | CC(C(=O)O)c1ccc(C2CCCC(=NO)C2)cc1 (stereo not shown) [Ximoprofen] |  |  | 0.98 | High (High: HIA value ≥0.7) | 
